From patent US20110110886A1, “SMALL MOLECULE INHIBITORS OF AUTOTAXIN AND METHODS OF USE” (Yale University, priority 2008, published 2011)
Entries after “also recorded” stand apart in the source; their conditions may differ. Read-outs that look alike come from different tables or passages of the source.

Assays:
[1] = test system: human melanoma cell line (A2058); assay: Boyden chamber cell migration assay, melanoma cells; assay type: cell-based; settings: A2058, 50 nM ATX, 4 hours
Protocol: (§1) All cell media was supplemented with 10% (v/v) fetal calf serum (FCS) (Gibco) and 1% (v/v) L-glutamine (Gibco) and grown at 37° C. in a humidified atmosphere containing 5% CO2.
The assay chambers are divided by a gelatin-coated membrane with […] pores (NeuroProbe). […] The chambers were then incubated at 37° C. for 4 hours, after which the filters were removed, fixed in 100% methanol, stained with a DiffQuick solution, and mounted onto glass slides. Non-migrating cells were removed from the membrane by scraping the top surface. The cells were quantitated by counting the cell number per high powered field in the various wells. Treatments were compared using a chi squared test.

[2] = molecular target: T1, ATX (recombinant full-length human ATX), PDE activity (Homo sapiens, UniProt Q13822); assay: Steady-state ATX phosphodiesterase (PDE) activity with pNP-TMP, absorbance 405 nm; assay type: biochemical; settings: substrate pNP-TMP; for Ki: 25° C.
T1 construct: consistent with a mature, glycosylated form of the enzyme; TEV cleavage site (C); 9-His (C); 6-His (C); made in house; host or cells: High Five insect cells (baculovirus, p-DEST-8)
Text: Protein expression and purification: The full length human NPP2 gene (NCBI accession #BC034961) followed by a C-terminal TEV cleavage site and a 9-His and 6-His purification tag was cloned and transferred into a p-DEST-8 baculovirus shuttle vector (Invitrogen), and bacmid DNA was generated by standard methods. The DNA sequence and correct transposition of the genes was verified by PCR, and recombinant full-length human ATX was expressed in High Five insect cells using standard methods. Three days post infection, the supernatant was adjusted to a final concentration of 50 mM Tris pH 8.0, 5 mM CaCl2, and 1 mM NiSO4 and stirred for 10 min. at room temperature. The resulting precipitant was removed by centrifugation (4,420×g for 30 minutes) and filtration ([…]), and the supernatant was concentrated using a Pall concentration system to approximately 250 mL. The cell media was passed over a nickel affinity column (5 mL, Fastflow resin), equilibrated in binding buffer (20 mM Tris pH 8.0, 300 mM NaCl, 20 mM imidazole, and 20% ethylene glycol) at 4° C., washed with 10 column volumes of binding buffer, and then eluted with binding buffer supplemented with 300 mM imidazole. Purified ATX was concentrated to approximately 10 mg mL^−1, and dialyzed into the appropriate assay buffer.
Steady-state enzyme assays: Phosphodiesterase activity of ATX (75-100 nM) was measured by absorbance (λ=405 nm) on a SpectraMax 250 plate reader at 25° C. with the substrate pNP-TMP [36]. Reactions were run in assay buffer containing 10% DMSO (v/v) and 1 mg mL^−1 BSA (hexachlorophene, merbromin, and bithionol) or without BSA (NSC 48300, 2,2′-Methylenebis(4-chlorophenol), eosin Y, and RJC 03297) in a total volume of […]. The uncatalyzed reaction rate was ≦10^−7 s^−1 (data not shown).
The steady-state rates (v) of product formation were obtained by fitting the time courses of absorbance or fluorescence change to linear functions. Absorbance units were converted to p-nitrophenylate concentration using ε405 of 18.5 mM^−1 cm^−1 [39] and a measured path length of 0.494 cm. FS-3 hydrolysis product formation was quantitated in arbitrary fluorescence units.
The Michaelis constants (KM) and the catalytic turnover rate constants (kcat) were obtained by fitting the [substrate]-dependence of v to a rectangular hyperbola in the form of the Briggs-Haldane equation: […]
in which [S] is [pNP-TMP] or [FS-3]. Inhibitors were treated as reversible inhibitors and analyzed according to the general steady-state linear enzyme inhibitor scheme:
in which E is ATX, S is pNP-TMP or FS-3 substrate, P are the hydrolysis products, and K1 is the dissociation equilibrium constant for inhibitor binding. The values of α and K1 were obtained by fitting the steady-state rates of product formation (v) to the general inhibition equation: […]
in which [I] is the inhibitor concentration, kcat is the maximum catalytic turnover rate, and KS is the Michaelis constant of the substrate obtained in the absence of inhibitor.
The type of inhibition (competitive, noncompetitive, or uncompetitive) depends on the value of α.
The type of inhibition was assigned if the difference between the r^2 values of the fits to the general inhibition equation (Eq 2) and the specific inhibition (i.e. competitive, noncompetitive or uncompetitive) equations was less than 0.01.

[3] = test system: Human breast adenocarcinoma cells, MDA-MB-231; assay: Matrigel cell invasion assay, breast cancer cells; assay type: cell-based; settings: 50 nM ATX
Protocol: (§2) Cell culture: Human melanoma cells, A2058 (ATCC), were grown in Dulbecco's Modified Eagle's Medium (DMEM) (Gibco), MeI 28 (ATCC), YUSAC2 (Yale University) and MeI-888 (Yale University) were grown in OptiMEM media (Gibco), and HTB 63 (ATCC) were grown in McKoy's 5a medium (ATCC). Human breast adenocarcinoma cells, MDA-MB-231(ATCC) and ovarian carcinoma cells R182 (Gil Mor, Yale University) were grown in RPMI-1640 (Gibco). All cell media was supplemented with 10% (v/v) fetal calf serum (FCS) (Gibco) and 1% (v/v) L-glutamine (Gibco) and grown at 37° C. in a humidified atmosphere containing 5% CO2.
(§3) Cell invasion assays: Matrigel matrix (1 mg/ml, Becton Dickenson) was added to […] gelatin-coated membranes placed in cell culture inserts (BD Falcon) and allowed to set for 24 hours at room temperature. The inserts were placed into companion 24 well plates (BD Falcon), and chemo-attractants (ATX ±inhibitors) and/or controls were added to the bottom of the wells. Cells (1×10^6) were added to the inserts and incubated for 3 hours at 37° C. Following incubation, the inserts were removed, fixed in 100% methanol, stained with DiffQuick solution, and mounted on glass slides. Non-invading cells were removed by scraping away the matrigel, and migrating cells were quantitated by counting cell number per high-powered field.

A2058 melanoma cells = assay: Matrigel cell invasion assay, melanoma cells; assay type: cell-based, human; settings: A2058, 50 nM ATX
Protocol: as §1, §3

[4] = test system: ovarian carcinoma cells R182; assay: Matrigel cell invasion assay, primary ovarian cancer cells; assay type: cell-based, human; settings: 50 nM ATX
Protocol: as §2, §3

α value from general steady-state inhibition equation (Eq. 2) [2]	Ki ([2]; read-out: KI (dissociation equilibrium constant for inhibitor binding), ATX PDE activity)	SMILES	inhibition of ATX-induced stimulation of melanoma cell motility [1]	type of inhibition of ATX PDE activity [2]	reduction of ATX-stimulated breast cancer cell invasion [3]	inhibition of ATX-induced stimulation of melanoma cell invasion (A2058 melanoma cells)	reduction of ATX-stimulated ovarian cancer cell invasion [4]	Ki ([2]; competitive inhibition equation (Eq. 3), read-out: KI, ATX PDE activity)	inhibition of ATX-induced stimulation of melanoma cell invasion (A2058 melanoma cells; listed as NSC48300)
3.0 (±2.3)	60 µM	Oc1c(Cl)cc(Cl)cc1Sc1cc(Cl)cc(Cl)c1O [Bithionol]	inhibited in a dose-dependent manner	mixed, noncompetitive inhibition mechanism	could be reduced	inhibited in a dose-dependent manner; also recorded: could be reduced	could be reduced	–	–
–	–	O=[As](O)(O)c1ccc(Cc2ccc([As](=O)(O)O)cc2)cc1 [NSC 48300]	inhibited in a dose-dependent manner	competitive inhibition	could be reduced	inhibited in a dose-dependent manner	could be reduced	0.0475 µM	could be reduced
